Measurements published in ChEMBL document CHEMBL1142806, “Synthesis and assay of isoquinoline derivatives as HIV-1 Tat-TAR interaction inhibitors” (Bioorg Med Chem Lett, 2005).

What was measured:
[1] = Percent inhibition of SIV-induced syncytium in CEM174 cells; type: functional
[2] = Effective concentration required to inhibit SIV induced syncytium in CEM174 cells; type: functional, cell-based
[3] = Binding constant to TAR at 0.814e-4 M concentration
[4] = Binding constant to TAR at 1.107e-4 M concentration
[5] = Binding constant to TAR at 0.357e-4 M concentration
[6] = Binding constant to TAR at 0.393e-4 M concentration

Structure (SMILES)	Inhibition [1] [%]	EC50 [2] [µM]	K [3]	K [4]	K [5]	K [6]
NCCNC(=O)c1cc2ccccc2cn1	44.2	12.9	33000			
NCCCNC(=O)c1cc2ccccc2cn1	58.7	8.74		15400		
N=C(N)NCCNC(=O)c1cc2ccccc2cn1.O=S(O)O	56.2	6.86			207000	
N=C(N)NCCCNC(=O)c1cc2ccccc2cn1.O=S(O)O	60.7	3.92				169000
